# Results published in paper PMC7752915 (Cell Discovery, 2020).
# Counter-ions that a name gives are not always drawn. Like-named read-outs stand apart in the source and are kept apart here.
# How the values were obtained:
# SARS-CoV-2 [1] = experiment: in vitro
# SARS-CoV-2 [2] = conditions: for IC50: read-out: half maximal inhibitory concentration (IC50) of SARS-CoV-2 replication, viral RNA copy number in supernatant
# SARS-CoV-2 [3] = experiment: time-of-addition assay (full-time, entry, post-entry treatment) in Vero E6 cells; type: cell-based
# SARS-CoV-2 [4] = experiment: microbe, parasite or virus in culture; conditions: Severe acute respiratory syndrome coronavirus 2, Vero C1008, 24 h, read-out: half maximal inhibitory concentration (IC50) of SARS-CoV-2 replication
# [5] = cytotoxicity in Vero E6 cells, CCK-8 assay; conditions: African green monkey
# Vero E6 cells = experiment: cytotoxicity in Vero E6 cells, CCK-8 assay; conditions: read-out: half cytotoxic concentration (CC50); Vero E6 cells, CCK-8 assay, 24 h
# SARS-CoV-2 [6] = experiment: separate or combined application of CQ and CCB in Vero E6 cells, qRT-PCR and NP immunofluorescence; type: cell-based; conditions: MOI 0.05, 24 h p.i.
# [7] = cited from earlier work
# SARS-CoV-2 [8] = type: cell-based; conditions: Vero E6 cells, MOI 0.05, 24 h p.i., viral titer in supernatant
# [9] = tested on: COVID-19 patients with hypertension; experiment: retrospective clinical investigation of hospitalized COVID-19 patients with hypertension as the only comorbidity; type: in vivo, human; conditions: for Admission to ICU / Invasive ventilation: number (%) of patients
# in vitro = conditions: African green monkey
# [10] = Vero E6 cells, MOI 0.05, 24 h p.i., serial concentrations
# [11] = Vero E6 cells, MOI 0.05, 24 h p.i.
# [12] = Supplementary Table S2, by treatment regimen
# [13] = Amlodipine n = 19, listed as Amlodipine
smiles,measurement,setting,value
"NCCOB(c1ccccc1)c1ccccc1 [2ABP, 2-aminoethyl diphenylborinate]",selectivity ratio,SARS-CoV-2 [1],> 8.26
same,inhibition of SARS-CoV-2 replication (in words),SARS-CoV-2 [2],significantly inhibited virus replication in a concentration-dependent manner
same,stage of virus infection inhibited,SARS-CoV-2 [3],mainly inhibit virus infection at a stage after virus entry
same,IC50,SARS-CoV-2 [4],24.2 µM
same,CC50 at 24 h,[5],> 200 µM
"CC(=O)OCOC(=O)CN(CC(=O)OCOC(C)=O)c1ccccc1OCCOc1ccccc1N(CC(=O)OCOC(C)=O)CC(=O)OCOC(C)=O [BAPTA-AM, 1,2-bis(2-aminophenoxy)ethane-N,N,N′,N′-tetraacetic acid tetrakis(acetoxymethyl ester)]",selective index (SI = CC50/IC50),SARS-CoV-2 [2]; Vero E6 cells,5.83
same,inhibition of SARS-CoV-2 replication (in words),SARS-CoV-2 [2]; [10],significantly inhibited virus replication in a concentration-dependent manner
same,IC50,SARS-CoV-2 [2]; [11],13.9 µM
same,CC50,Vero E6 cells,81.3 µM
"CCN(CC)CCCC(C)Nc1ccnc2cc(Cl)ccc12 (stereo not shown) [CQ, chloroquine]","effect on virus replication, separate or combined application",SARS-CoV-2 [6],distinct reduction in virus replication
CCOC(=O)C1=C(COCCN)NC(C)=C(C(=O)OC)C1c1ccccc1Cl (stereo not shown) [amlodipine besylate],Cmax,"[7]; volunteers, 5 mg of amlodipine besylate",~ 4 ng/mL
same,anti-SARS-CoV-2 activity by plaque assay (in words),SARS-CoV-2 [8],confirmed by plaque assay
same,"Fatal, n (%)",[9]; [12],0 n (%)
same,"Survival, n (%)",[9]; [12],19 (100) n (%)
same,Fatal (outcome),"[9]; Table 1, number (%) of patients, Amlodipine n = 19",0
same,Admission to ICU,[9]; Amlodipine n = 19,none
same,Invasive ventilation,[9]; Amlodipine n = 19,none
same,Admission to ICU,[9]; [13],0
same,Invasive ventilation,[9]; [13],0
COC(=O)C1=C(C)NC(C)=C(C(=O)O[C@@H]2CCCN(Cc3ccccc3)C2)[C@@H]1c1cccc([N+](=O)[O-])c1.Cl [benidipine HCI],Cmax,"[7]; volunteers, 8 mg of benidipine HCI",~ 4 ng/mL
same,selective index (SI = CC50/IC50),SARS-CoV-2 [2]; Vero E6 cells,> 26.25
same,IC50,SARS-CoV-2 [2]; [11],3.81 µM
same,"effect on virus replication, separate or combined application",SARS-CoV-2 [6],distinct reduction in virus replication
same,stage of virus infection inhibited,"SARS-CoV-2 [3]; Vero E6 cells, MOI 0.05, 24 h p.i., qRT-PCR, western blot, immunofluorescence",mainly inhibit virus infection at a stage after virus entry
same,anti-SARS-CoV-2 activity by plaque assay (in words),SARS-CoV-2 [8],confirmed by plaque assay
same,CC50,Vero E6 cells,> 100 µM
COCCOC(=O)C1=C(C)NC(C)=C(C(=O)OC/C=C/c2ccccc2)C1c1cccc([N+](=O)[O-])c1 (stereo not shown) [cilnidipine],selectivity ratio at 24 h,SARS-CoV-2 [1],> 8.64
same,Cmax,"[7]; human, in vivo, 20 mg",16.5 ng/mL
same,CC50 at 24 h,in vitro,> 100 µM
same,IC50,SARS-CoV-2 [4],11.6 µM
CCOC(=O)[C@H](CCc1ccccc1)N[C@@H](C)C(=O)N1CCC[C@H]1C(=O)O [enalapril maleate],inhibition of SARS-CoV-2 replication (in words),SARS-CoV-2 [2]; [10],did not show any significant inhibition effects
C[C@H](N[C@@H](CCc1ccccc1)C(=O)O)C(=O)N1CCC[C@H]1C(=O)O.O.O [enalaprilat dehydrate],inhibition of SARS-CoV-2 replication (in words),SARS-CoV-2 [2]; [10],did not show any significant inhibition effects
CCCCc1nc(Cl)c(CO)n1Cc1ccc(-c2ccccc2-c2nn[nH]n2)cc1 [losartan potassium],inhibition of SARS-CoV-2 replication (in words),SARS-CoV-2 [2]; [10],did not show any significant inhibition effects
"COC(=O)C1=C(C)NC(C)=C(C(=O)OCCN(C)Cc2ccccc2)C1c1cccc([N+](=O)[O-])c1 (stereo not shown) [nicardipine HCI, nicardipine HCl]",selectivity ratio at 24 h,SARS-CoV-2 [1],> 7.51
same,Cmax,"[7]; volunteers, 60 mg nicardipine hydrochloride",58.4 ng/mL
same,IC50,SARS-CoV-2 [4],13.3 µM
same,CC50 at 24 h,[5],> 100 µM
COC(=O)C1=C(C)NC(C)=C(C(=O)OC)C1c1ccccc1[N+](=O)[O-] [nifedipine],case fatality rate (CFR),"[9]; COVID-19 patients with hypertension as only comorbidity, by antihypertensive drug received",14.3%
same,"Fatal, n (%)",[9]; [12],2 (14.3) n (%)
CCCCC(=O)N(Cc1ccc(-c2ccccc2-c2nnn[nH]2)cc1)[C@H](C(=O)O)C(C)C [valsartan],inhibition of SARS-CoV-2 replication (in words),SARS-CoV-2 [2]; [10],did not show any significant inhibition effects
